Key:
calvarial osteoblasts = assay: In vitro mineralization of calvarial osteoblasts (alizarin red-S, von kossa); assay type: cell-based, neonatal Sprague-Dawley rats; conditions: for Von kossa staining (mineralized nodules) compared with controls (vehicle): 21 days culture
Method: Neonatal rat calvarial cell cultures are prepared as described previously (Chattopadhyay et al., Endocrinology 145:3451-62, 2004) using slight modification. Briefly, for calvarial osteoblast cultures, frontal and parietal bones from neonatal Sprague-Dawley rats (1-3 day old) were digested in 0.1% collagenase/0.1% dispase in α-MEM to obtain 5 sequential digests. The second through fifth digests are combined and grown to confluence at 37° C. and 5% CO2 in air in α-MEM, supplemented with 10% fetal bovine serum (FBS), 2 mM glutamine, 100 U/ml penicillin-streptomycin, non-essential amino acid solution and sodium pyruvate.
Ability of cells to produce mineralized matrix is important with regard to development of materials for bone regeneration. Mineralization of extracellular matrix by osteoblasts was determined using alizarin red-S (AR-S) assay combined with cetylpyridinium chloride (CPC) extraction. (Stanford et al, J. Biol. Chem. 270:9420-9428; 1995.) Alizarin red is a dye that binds selectively to nascent calcium salts and is widely used for calcium mineral histochemistry. Cells were seeded onto a six well plate containing 10000 cells/well in culture medium supplemented with 10 mM β-glycerophosphate and 50 μg/ml ascorbic acid with test compounds K012, K058, K068 and K0100 at 1 nM and 100 nM concentration. Treatment was given for 21 days and after completion of the treatment samples were rinsed with PBS followed by fixation (4% HCHO for 20 min). Photomicrographs of the stained wells were taken. Subsequently, alizarin red-S stain was extracted using 10% (w/v) cetylpyridinium chloride (CPC) in […] sodium phosphate, pH 7.0, for 15 min at room temperature, and the resulting solutions were read on a Microplate reader with a test wavelength of 540 nm against a reference wavelength of 620 nm. Mineralization nodules were also seen by Von kossa staining procedure (A. M. Chou et al. Materials Science and Engineering C 20 (2002) 77-83.) After 21 days culture, cells in tissue culture wells were washed with PBS and immersed in 5% (w/v) silver nitrate solution for 45 min. After rinsing with distilled water, they were fixed in 5% (w/v) sodium bicarbonate formalin for 8 min. Finally, they were immersed in 5% (w/v) sodium thiosulphate solution for 5 min and washed thoroughly with water for 15 min and photomicrographs were taken.

[1] = system: ovariectomized Sprague Dawley rats; assay: Uterine weight in Ovx rats (estrogen agonistic effect); assay type: in vivo; conditions: 1.0&5.0 mg/kg body weight, 90 days, uterine weight comparable with Ovx + vehicle
Method: Ethanolic extracts of […] at the doses of 500-& 750 mg/kg body weight were given daily by oral route to Sprague Dawley (180-200 g) rats after bilateral ovariectomy (Ovx). This is the most widely used animal model for osteopenia (bone loss) mimicking human condition of post-menopausal bone loss. The extract was given in gum acacia (vehicle). Sham operated rats and Ovx rats were used as controls and given only gum acacia. Each group consisted of 10 rats and the groups were as follows: sham intact, Ovx, Ovx+500 mg/kg extract and Ovx+750 mg/kg extract. Treatment started 24 h after the surgery and continued for 90 days. After 90 days, the rats were first acclimatized and then kept in metabolic cages with no food but only water for 24 h to collect urine samples. After 24 h, rats were returned to the cages with food and water ad libitum with oral administration of the extract as before foe an additional 24 hour. Rats were then euthanized and autopsied to collect blood, bones (tibia, femur, L1-L4 vertebrae) and uterus. […] at 1 to 10 mg/kg body weight were given daily by oral route to Sprague Dawley (180-200 g) rats after bilateral ovariectomy (Ovx). This is the most widely used animal model for osteopenia (bone loss) mimicking human condition of post-menopausal bone loss. The extract was given in gum acacia (vehicle). […]

Row | SMILES | osteoblast mineralization (summary of in vitro effects) (calvarial osteoblasts) | Von kossa staining (mineralized nodules) compared with controls (vehicle) (calvarial osteoblasts) | estrogen agonistic action at the uterine level (uterine weight) [1]
1 | O=c1c(O)c(-c2ccc(O)c(O)c2)oc2cc(O)c(C3O[C@H](CO)[C@@H](O)[C@H](O)[C@H]3O)c(O)c12 (stereo partly drawn) [K012, 6-Glucopyranosyl-3,3′,4′,5,7-pentahydroxyflavone] | promoted | increased | no estrogen agonistic action
2 | O=C1c2c(cc(O)c([C@@H]3OC(CO)[C@@H](O)[C@H](O)C3O)c2O)O[C@@H](c2ccc(O)c(O)c2)[C@@H]1O (stereo partly drawn) [K058, (2S,3S)-(+)-3′,4′,5,7-tetrahydroxydihydroflavonol-6-C-β-D-glucopyranoside] | promoted | increased | no estrogen agonistic action

Source: patent US8669232B2, “Flavonol compounds, a bioactive extract/fraction from Ulmus wallichiana and its compounds for prevention for treatment of osteo-health related disorders” (Council of Scientific & Industrial Research, priority 2008, dated 2014)
